Experimental data published in publication PMC6008465 (British Journal of Cancer, 2018).

How the values were obtained:
[1] = test system: patients with advanced BRAF-mutated or wild-type (WT) melanoma; assay: Phase 1 Part B (expansion): safety, MTD confirmation; format: in vivo, human
Protocol: In Part B, an adaptive study design was planned to define an optimal dosing schedule. Two schedules were evaluated: Schedule I (once-weekly dosing at the MTD, 320 mg/m^2, on Days 1, 8, and 15 of a 28-day cycle) and Schedule II (twice-weekly dosing, on Days 1, 4, 8, 11, 15, and 18 of a 28-day cycle, starting at 160 mg/m^2, based on the Schedule I MTD). One dose escalation (from 160 mg/m^2 to 320 mg/m^2) was allowed in Schedule II for MTD determination. […] Toxicity was managed as before. Up to 30 patients with BRAF-mutated melanoma and up to 29 patients with BRAF-WT melanoma were to be enrolled in Schedule I. Up to 30 patients were to be enrolled into Schedule II once the MTD was confirmed. Based on the efficacy observed in Part A, Schedule II was initiated only in patients with BRAF-mutated melanoma. Patients could continue to receive E6201 as long as there was evidence of clinical benefit (extension phase).
Safety was assessed by monitoring AEs, serious AEs (SAEs), laboratory parameters, vital signs, 12-lead electrocardiograms (ECGs), Eastern Cooperative Oncology Group performance status, and symptom-directed physical and neurologic examination findings. AEs were graded by investigators based on the National Cancer Institute Common Terminology Criteria for Adverse Events, version 3.[16]

[2] = Part B pharmacokinetics by BRAF genotype; format: in vivo, human; settings: Part B dose-expansion, by dose and genotype
Protocol: In Part A, blood was collected on Cycle 1, Days 1 and 15 at specified intervals prior to, during, and postinfusion (5 min–8 h), and on Days 2, 3, 16, and 17 (24 and 48 h postinfusion). Urine was collected on Cycle 1, Day 1 preinfusion, at 0–8 h, and 8–24 h. In Part B, blood was collected on Cycle 1, Day 1, prior to, during, and at 1–24 h postinfusion. Pharmacokinetic parameters were calculated using noncompartmental analysis.

[3] = Part B, BRAF-WT 320 mg/m^2 once weekly (n=7)
[4] = Part B, BRAF-mutated 160 mg/m^2 twice weekly (n=3)
[5] = Part B, BRAF-mutated 320 mg/m^2 once weekly (n=20)
[6] = Part B, BRAF-mutated 320 mg/m^2 once-weekly group

SMILES: CCNc1cc(O)c2c(c1)/C=C/C[C@H](O)[C@H](O)C(=O)/C=C\[C@@H](C)[C@H](C)OC2=O [E6201, (3S,4R,5Z,8S,9S,11E)-14-(ethylamino)-8,9,16-trihydroxy-3,4-dimethyl-3,4,9,19-tetrahydro-1H-2-benzoxacyclotetradecine-1,7 (8H)-dione]
- Patients who discontinued treatment due to SAEs ([1]; Part B): 4 patients
- Fatigue TEAE, patients ([1]; Part B overall, 11 patients): 36.7%
- Grade 3/4 abdominal pain, patients ([1]; Part B, 2 patients): 6.7%
- Grade 3/4 dyspnea, patients ([1]; Part B, 2 patients): 6.7%
- Treatment-emergent SAEs other than death, patients ([1]; Part B, 14 patients): 46.7%
- Grade 3/4 TEAEs, patients ([1]; Part B, 15 patients): 50.0%
- Patients with ≥1 TEAE assessed as treatment-related ([1]; Part B, 19 patients): 63.3%
- QT prolongation reported as an AE (grade 3, possibly related, not DLT), patients ([1]; Part B, 60-min infusion, 1 patient): 3.3%
- Anemia TEAE incidence, All grades [1, 3]: 3 (42.9) n (%)
- Anemia TEAE incidence, G≥3 [1, 3]: 1 (14.3) n (%)
- Constipation TEAE incidence, All grades [1, 3]: 2 (28.6) n (%)
- Constipation TEAE incidence, G≥3 [1, 3]: 0 n (%)
- Cough TEAE incidence, All grades [1, 3]: 1 (14.3) n (%)
- Cough TEAE incidence, G≥3 [1, 3]: 0 n (%)
- Decreased appetite TEAE incidence, All grades [1, 3]: 2 (28.6) n (%)
- Decreased appetite TEAE incidence, G≥3 [1, 3]: 0 n (%)
- Fatigue TEAE incidence, All grades [1, 3]: 4 (57.1) n (%)
- Fatigue TEAE incidence, G≥3 [1, 3]: 0 n (%)
- Muscular weakness TEAE incidence, All grades [1, 3]: 2 (28.6) n (%)
- Muscular weakness TEAE incidence, G≥3 [1, 3]: 0 n (%)
- Nausea TEAE incidence, All grades [1, 3]: 2 (28.6) n (%)
- Nausea TEAE incidence, G≥3 [1, 3]: 0 n (%)
- Pain in extremity TEAE incidence, All grades [1, 3]: 2 (28.6) n (%)
- Pain in extremity TEAE incidence, G≥3 [1, 3]: 1 (14.3) n (%)
- Peripheral edema TEAE incidence, All grades [1, 3]: 2 (28.6) n (%)
- Peripheral edema TEAE incidence, G≥3 [1, 3]: 1 (14.3) n (%)
- Pyrexia TEAE incidence, All grades [1, 3]: 1 (14.3) n (%)
- Pyrexia TEAE incidence, G≥3 [1, 3]: 0 n (%)
- Vomiting TEAE incidence, All grades [1, 3]: 1 (14.3) n (%)
- Vomiting TEAE incidence, G≥3 [1, 3]: 0 n (%)
- Deaths (multisystem organ failure, not considered related) ([1]; Part B, BRAF-mutated 160 mg/m^2 once-weekly group (so in the source)): One
- Anemia TEAE incidence, All grades [1, 4]: 1 (33.3) n (%)
- Anemia TEAE incidence, G≥3 [1, 4]: 0 n (%)
- Constipation TEAE incidence, All grades [1, 4]: 0 n (%)
- Constipation TEAE incidence, G≥3 [1, 4]: 0 n (%)
- Cough TEAE incidence, All grades [1, 4]: 1 (33.3) n (%)
- Cough TEAE incidence, G≥3 [1, 4]: 0 n (%)
- Decreased appetite TEAE incidence, All grades [1, 4]: 0 n (%)
- Decreased appetite TEAE incidence, G≥3 [1, 4]: 0 n (%)
- Fatigue TEAE incidence, All grades [1, 4]: 0 n (%)
- Fatigue TEAE incidence, G≥3 [1, 4]: 0 n (%)
- Muscular weakness TEAE incidence, All grades [1, 4]: 1 (33.3) n (%)
- Muscular weakness TEAE incidence, G≥3 [1, 4]: 0 n (%)
- Nausea TEAE incidence, All grades [1, 4]: 1 (33.3) n (%)
- Nausea TEAE incidence, G≥3 [1, 4]: 1 (33.3) n (%)
- Pain in extremity TEAE incidence, All grades [1, 4]: 1 (33.3) n (%)
- Pain in extremity TEAE incidence, G≥3 [1, 4]: 0 n (%)
- Peripheral edema TEAE incidence, All grades [1, 4]: 1 (33.3) n (%)
- Peripheral edema TEAE incidence, G≥3 [1, 4]: 0 n (%)
- Pyrexia TEAE incidence, All grades [1, 4]: 0 n (%)
- Pyrexia TEAE incidence, G≥3 [1, 4]: 0 n (%)
- Vomiting TEAE incidence, All grades [1, 4]: 1 (33.3) n (%)
- Vomiting TEAE incidence, G≥3 [1, 4]: 1 (33.3) n (%)
- Anemia TEAE incidence, All grades [1, 5]: 1 (5.0) n (%)
- Anemia TEAE incidence, G≥3 [1, 5]: 0 n (%)
- Constipation TEAE incidence, All grades [1, 5]: 3 (15.0) n (%)
- Constipation TEAE incidence, G≥3 [1, 5]: 0 n (%)
- Cough TEAE incidence, All grades [1, 5]: 3 (15.0) n (%)
- Cough TEAE incidence, G≥3 [1, 5]: 0 n (%)
- Decreased appetite TEAE incidence, All grades [1, 5]: 3 (15.0) n (%)
- Decreased appetite TEAE incidence, G≥3 [1, 5]: 0 n (%)
- Fatigue TEAE incidence, All grades [1, 5]: 7 (35.0) n (%)
- Fatigue TEAE incidence, G≥3 [1, 5]: 0 n (%)
- Muscular weakness TEAE incidence, All grades [1, 5]: 2 (10.0) n (%)
- Muscular weakness TEAE incidence, G≥3 [1, 5]: 0 n (%)
- Nausea TEAE incidence, All grades [1, 5]: 7 (35.0) n (%)
- Nausea TEAE incidence, G≥3 [1, 5]: 0 n (%)
- Pain in extremity TEAE incidence, All grades [1, 5]: 2 (10.0) n (%)
- Pain in extremity TEAE incidence, G≥3 [1, 5]: 0 n (%)
- Peripheral edema TEAE incidence, All grades [1, 5]: 2 (10.0) n (%)
- Peripheral edema TEAE incidence, G≥3 [1, 5]: 0 n (%)
- Pyrexia TEAE incidence, All grades [1, 5]: 4 (20.0) n (%)
- Pyrexia TEAE incidence, G≥3 [1, 5]: 0 n (%)
- Vomiting TEAE incidence, All grades [1, 5]: 5 (25.0) n (%)
- Vomiting TEAE incidence, G≥3 [1, 5]: 0 n (%)
- Patients with grade 1 photophobia (possibly related) ([1]; Part B, BRAF-mutated 320 mg/m^2 once-weekly): one
- Deaths (not considered related to E6201) [1, 6]: 2 patients
- Patients with grade 4 pericardial effusion (unrelated) [1, 6]: 1 patient
- Anemia TEAE incidence, All grades ([1]; Part B, Total (N=30)): 5 (16.7) n (%)
- Anemia TEAE incidence, G≥3 ([1]; Part B, Total (N=30)): 1 (3.3) n (%)
- Constipation TEAE incidence, All grades ([1]; Part B, Total (N=30)): 5 (16.7) n (%)
- Constipation TEAE incidence, G≥3 ([1]; Part B, Total (N=30)): 0 n (%)
- Cough TEAE incidence, All grades ([1]; Part B, Total (N=30)): 5 (16.7) n (%)
- Cough TEAE incidence, G≥3 ([1]; Part B, Total (N=30)): 0 n (%)
- Decreased appetite TEAE incidence, All grades ([1]; Part B, Total (N=30)): 5 (16.7) n (%)
- Decreased appetite TEAE incidence, G≥3 ([1]; Part B, Total (N=30)): 0 n (%)
- Fatigue TEAE incidence, All grades ([1]; Part B, Total (N=30)): 11 (36.7) n (%)
- Fatigue TEAE incidence, G≥3 ([1]; Part B, Total (N=30)): 0 n (%)
- Muscular weakness TEAE incidence, All grades ([1]; Part B, Total (N=30)): 5 (16.7) n (%)
- Muscular weakness TEAE incidence, G≥3 ([1]; Part B, Total (N=30)): 0 n (%)
- Nausea TEAE incidence, All grades ([1]; Part B, Total (N=30)): 10 (33.3) n (%)
- Nausea TEAE incidence, G≥3 ([1]; Part B, Total (N=30)): 1 (3.3) n (%)
- Pain in extremity TEAE incidence, All grades ([1]; Part B, Total (N=30)): 5 (16.7) n (%)
- Pain in extremity TEAE incidence, G≥3 ([1]; Part B, Total (N=30)): 1 (3.3) n (%)
- Peripheral edema TEAE incidence, All grades ([1]; Part B, Total (N=30)): 5 (16.7) n (%)
- Peripheral edema TEAE incidence, G≥3 ([1]; Part B, Total (N=30)): 1 (3.3) n (%)
- Pyrexia TEAE incidence, All grades ([1]; Part B, Total (N=30)): 5 (16.7) n (%)
- Pyrexia TEAE incidence, G≥3 ([1]; Part B, Total (N=30)): 0 n (%)
- Vomiting TEAE incidence, All grades ([1]; Part B, Total (N=30)): 7 (23.3) n (%)
- Vomiting TEAE incidence, G≥3 ([1]; Part B, Total (N=30)): 1 (3.3) n (%)
- QTcF prolongation to 450–500 ms, patients ([1]; Part B, four patients across dose groups): 13.3%
- QTcF increase from baseline 30–60 ms, patients ([1]; Part B, seven patients): 23.3%
- QTcF increase from baseline ≥60 ms, patients ([1]; Part B, two patients, BRAF-mutated 320 mg/m^2 once-weekly group): 6.7%
- Maximum-tolerated dose (MTD), confirmed ([1]; Part B, 60-min infusion once-weekly for 3 weeks of a 28-day cycle): 320 mg/m^2
- Effect of BRAF mutation on PK properties [2]: no effect
